Data from patent publication US20150150892A1, “METHODS AND PRODUCTS RELATED TO LUNG CANCER” (Massachusetts Institute of Technology, priority 2012, published 2015).

Experiments:
[1] = system: NF-κB target genes regulating apoptosis and survival; experiment: QPCR of NF-κB targets in Bortezomib-resistant KP cell line; format: cell-based, mouse; details: 5 nM Bortezomib, 24 hours
Experimental: A representative resistant cell line was treated with control or 5 nM Bortezomib for 24 hours. Gene expression level was measured by QPCR and normalized to control-treated cells (set to 1). Error bars are s.d. (n=3).
RNA was purified using TRIzol (Invitrogen), according to the manufacturer's instructions. One microgram of RNA was reverse transcribed using the High-Capacity cDNA Reverse Transcription Kit (Applied Biosystems). Real-time PCR (quantitative PCR) amplification was performed using Taqman probes (Applied Biosystems). Data were normalized to the Gapdh (mouse) or GAPDH (human) levels.

[2] = system: KP lung cancer cells in NCR nu/nu mice; experiment: Subcutaneous tumor model, caliper tumor volume; details: KP cells s.c. in immunocompromised mice
Experimental: 1×10^6 KP lung cancer cells were injected subcutaneously into NCR nu/nu mice. Tumor volume was quantified by caliper measurements. Treatments started when tumors reached −100 mm^3 (set to 1 in tumor volume axis and 0 days in time axis). Arrows indicate Bortezomib (1 mg/kg) or Cisplatin (7 mg/kg) injections. Error bars are s.d (n=4).
To compare the efficacy of bortezomib to that of other lung cancer therapies, we injected KP lung tumor cells s.c. into immunocompromised mice, allowed tumors to form, and then treated the mice with bortezomib.

[3] = system: KrasLSL-G12D/wt (K) lung tumors; experiment: MicroCT lung tumor volume in K mice; format: in vivo, mouse; details: single 1 mg/kg dose, 20 weeks post infection
Excerpt: FIG. 3: Bortezomib induces acute lung tumor regression in KrasLSL-G12D/wt;p53flox/flox (KP) mice, but not in KrasLSL-G12D/wt (K) mice. (3A and 3C) representative microCT images (n=6) of KP (3A) and K (3C) lung tumors prior to pre-treatment (D0) and 4 days (D4) after a single dose of vehicle control or bortezomib. (3 B and 3D) Quantification of tumor volume change (D4 compared with D0) in control- and bortezomib-treated mice. Each bar represents an individual tumor. P<10^−6 in KP mice (3B); P>0.05 in K mice (3D).
The Massachusetts Institute of Technology (Cambridge, Mass.) Institutional Animal Care and Use Committee approved all animal studies and procedures. To initiate lung tumors, cohorts of K or KP mice of 129svJae background were infected with 2.5×10^7 plaque-forming units of Adeno-Cre (University of Iowa) by intranasal inhalation, as described previously (2, 28). Mice were given bortezomib (LC Labs) in PBS [0.5% dimethylsulfoxide (DMSO)] at 1 mg/kg body weight i.v., as indicated. […]
At indicated time points, mice were scanned for 15 min under isoflurane anesthesia, using a small animal eXplore Locus microCT (GE Healthcare) at 45-μm resolution, 80 kV, with 450-mA current (47). […] Mice were imaged for 60 seconds, and signals in the lung were quantified using Xenogen software. […]

[4] = system: NF-κB transcription factor subunit p65; experiment: Immunoblot of nuclear and cytoplasmic p65 in KP cell lines; format: cell-based, mouse; details: 5 nM bortezomib, 24 hours, KP1 and KP2 cell lines, vs vehicle control
Experimental: (§1) FIG. 1. Bortezomib inhibits NF-κB signaling and induces apoptosis in murine lung adenocarcinoma cell lines. (1A) reduction of nuclear p65 level by bortezomib. Two KP (KrasLSL-G12D/wt;p53flox/flox) cell lines (KP1 and KP2) were treated with 5 nM bortezomib (BZ) or vehicle control (ctrl) for 24 hours. Nuclear (N) and cytoplasmic (C) fractions of protein lysates were immunoblotted with the indicated antibodies. NEMO and Parp serve as cytoplasmic and nuclear loading controls, respectively. (1B) quantitative PCR analysis of a subset of NF-κB target genes in 5 nM bortezomib (BZ)-treated KP cells at the indicated time points. Vehicle control is set to 1. (1C) apoptosis in KP and KP^M (KrasLSL-G12D/wt;p53R127H/−) cells induced by bortezomib. Cells were pre-treated with 5 nM bortezomib for 24 hours, and protein lysates were immunoblotted with CC3 and tubulin antibodies. (1D) quantification of cell death in bortezomib-treated cells. Cells were treated with the indicated concentrations of bortezomib for 24 hours, and dead cells were quantified by Trypan blue staining. Error bars are SD (n=3).
Cell pellets were lysed in Laemmli buffer. Equal amounts of protein (16 μg) were separated on 10% SDS-polyacrylamide gels and transferred to polyvinylidene difluoride membranes. […]

[5] = system: KP and KP^M cells; experiment: Cleaved caspase 3 (CC3) immunoblot in lung adenocarcinoma cells; format: cell-based, mouse; details: 5 nM bortezomib, 24 hours, KP and KP^M cells
Experimental: as §1
FIG. 17: Bay-117082 induces cell death In KP cells. […] (17B) Bay-117082 induces apoptosis in KP cells. Cells were treated with 10IJM Bay-117082 for 48 hours. Protein lysates were immunoblotted with cleaved caspase 3 (CC3) and Tubulin antibodies.
Cell pellets were lysed in Laemmli buffer. […]

[6] = system: CDK inhibitors p21 and p27; details: cited from earlier work

Question: With `CC(C)C[C@H](NC(=O)[C@H](Cc1ccccc1)NC(=O)c1cnccn1)B(O)O` [bortezomib, N-(2-pyrazine) carbonyl-L-phenylalanine-L-leucine boronic acid] as the molecule, how does the “NF-κB target genes regulating apoptosis and survival” value [1] read?
Answer: robust downregulation

Question: And the “tumor volume, short term” value ([2]; Bortezomib 1 mg/kg)?
Answer: markedly reduced tumor volumes

Question: What about the tumor progression ([2]; Bortezomib 1 mg/kg or Cisplatin 7 mg/kg) of the same molecule?
Answer: diminished tumor progression to a similar extent as cisplatin

Question: What about the tumor regression [3] of the same molecule?
Answer: did not regress

Question: And the “nuclear accumulation of p65” value [4]?
Answer: reduced nuclear accumulation

Question: What about the “cleaved caspase 3 (CC3)” value [5] of the same molecule?
Answer: increased cleaved caspase 3

Question: What about the “effect on CDK inhibitors p21 and p27” value [6] of the same molecule?
Answer: stabilize
